Counter-ions that a name gives are not always drawn. Like-named read-outs stand apart in the source and are kept apart here.
How the values were obtained:
pooled human microsomes [1] = system: pooled human microsomes
pooled rat microsomes [2] = system: pooled rat microsomes
rat hepatocytes [3] = system: rat hepatocytes
OATP1B3 = target: T1, OATP1B3 (Homo sapiens, UniProt Q9NPD5); conditions: on average; p<0.05
T1 sequence (Q9NPD5 1-702): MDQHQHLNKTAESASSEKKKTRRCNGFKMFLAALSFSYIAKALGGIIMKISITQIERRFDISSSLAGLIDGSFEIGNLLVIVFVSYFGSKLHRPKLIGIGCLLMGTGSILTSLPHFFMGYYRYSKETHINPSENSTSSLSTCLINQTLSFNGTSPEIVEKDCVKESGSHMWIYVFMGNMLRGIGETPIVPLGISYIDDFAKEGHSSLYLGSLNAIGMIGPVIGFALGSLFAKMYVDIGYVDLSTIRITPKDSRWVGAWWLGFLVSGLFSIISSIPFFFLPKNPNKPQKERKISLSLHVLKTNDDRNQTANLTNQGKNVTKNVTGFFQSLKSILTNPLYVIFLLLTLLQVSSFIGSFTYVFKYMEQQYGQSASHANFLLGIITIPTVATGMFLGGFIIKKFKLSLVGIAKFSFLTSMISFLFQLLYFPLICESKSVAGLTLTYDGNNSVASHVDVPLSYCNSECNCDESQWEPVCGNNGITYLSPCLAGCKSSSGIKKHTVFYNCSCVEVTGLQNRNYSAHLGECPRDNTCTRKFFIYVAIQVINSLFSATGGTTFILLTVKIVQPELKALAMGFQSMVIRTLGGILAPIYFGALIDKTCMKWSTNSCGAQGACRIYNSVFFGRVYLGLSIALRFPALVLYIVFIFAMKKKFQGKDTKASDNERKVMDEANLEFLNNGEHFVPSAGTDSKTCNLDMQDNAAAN

OATP2B1 = target: T2, OATP2B1 (Homo sapiens, UniProt O94956); conditions: on average; p<0.05
T2 sequence (O94956 1-709): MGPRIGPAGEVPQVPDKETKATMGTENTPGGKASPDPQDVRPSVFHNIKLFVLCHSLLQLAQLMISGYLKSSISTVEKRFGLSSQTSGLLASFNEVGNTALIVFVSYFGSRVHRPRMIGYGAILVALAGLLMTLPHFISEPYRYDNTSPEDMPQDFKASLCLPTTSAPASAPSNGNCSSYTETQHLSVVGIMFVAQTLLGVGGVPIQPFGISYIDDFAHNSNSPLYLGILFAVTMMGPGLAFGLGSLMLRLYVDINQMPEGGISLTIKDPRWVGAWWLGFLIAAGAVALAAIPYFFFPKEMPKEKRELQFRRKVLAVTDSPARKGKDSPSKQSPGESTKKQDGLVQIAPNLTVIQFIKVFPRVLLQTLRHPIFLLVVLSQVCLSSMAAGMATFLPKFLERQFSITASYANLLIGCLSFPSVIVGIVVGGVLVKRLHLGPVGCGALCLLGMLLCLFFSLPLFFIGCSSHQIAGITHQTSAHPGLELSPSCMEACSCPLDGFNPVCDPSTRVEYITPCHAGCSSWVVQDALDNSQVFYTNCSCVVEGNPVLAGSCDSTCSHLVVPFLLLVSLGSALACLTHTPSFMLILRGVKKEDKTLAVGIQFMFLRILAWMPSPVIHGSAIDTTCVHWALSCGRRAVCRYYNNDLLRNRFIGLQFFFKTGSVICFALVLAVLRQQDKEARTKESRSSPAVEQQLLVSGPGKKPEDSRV

[4] = classification by solubility, permeability and extent of metabolism; cited from earlier work
rat hepatocytes [5] = conditions: 2 min, rifampin 10 μM, MK-571 100 μM
pooled human microsomes [6] = test: Microsome incubations, pooled human microsomes; conditions: propranolol 10 μM; quinidine 30 μM
pooled rat microsomes [7] = test: Microsome incubations, pooled rat microsomes; conditions: propranolol 10 μM, 0.5 mg/ml microsomes, 30 min, 37°C; rifampin 10 μM, quinidine 30 μM
rat hepatocytes [8] = system: rat hepatocytes; remark: listed apart in the source
rat hepatocytes [9] = system: rat hepatocytes; remark: listed apart in the source

Molecule: Nc1ccc(S(=O)(=O)Nc2ccnn2-c2ccccc2)cc1 [sulfaphenazole]
- Effect on metabolism of losartan in human microsomes (pooled human microsomes [1]): no inhibition of metabolism
- Effect on metabolism of losartan in rat microsomes (pooled rat microsomes [2]): decrease in metabolism

Molecule: CC[C@H](C)[C@H](NC(=O)[C@H](CC(=O)O)NC(=O)[C@H](CC(C)C)NC(=O)[C@H](Cc1cnc[nH]1)NC(=O)[C@@H]1CSSC[C@H](N)C(=O)N[C@@H](CO)C(=O)N[C@H]2CSSC[C@H](NC(=O)[C@H](CCC(=O)O)NC(=O)[C@H](CCCCN)NC(=O)[C@H](CC(=O)O)NC(=O)[C@H](CCSC)NC(=O)[C@H](CC(C)C)NC(=O)[C@H](CO)NC(=O)[C@H](CO)NC2=O)C(=O)N[C@@H](C(C)C)C(=O)N[C@@H](Cc2ccc(O)cc2)C(=O)N[C@@H](Cc2ccccc2)C(=O)N1)C(=O)N[C@H](C(=O)N[C@@H](Cc1c[nH]c2ccccc12)C(=O)O)[C@@H](C)CC [endothelin]
- Inhibition of uptake of losartan in rat hepatocytes (rat hepatocytes [3]): 22%

Molecule: CC12CCC3c4ccc(OS(=O)(=O)O)cc4CCC3C1CCC2=O (stereo not shown) [[^3H]-estrone sulfate]
- Decrease of uptake in pcMV6 empty vector control vs OATP1B3 transfected cells (OATP1B3): 50%
- Decrease of uptake in pcMV6 empty vector control vs OATP2B1 transfected cells (OATP2B1): 80%

Molecule: CC(C)NCC(O)COc1cccc2ccccc12 (stereo not shown) [propranolol]
- BDDCS class [4]: Class 1

Molecule: IL-6: interleukin-6, tested as uremic toxin
- Inhibition of uptake of losartan in rat hepatocytes (rat hepatocytes [5]; losartan 10 μM, p<0.05, n=4): 28%

Molecule: C=C[C@H]1C[N@@]2CC[C@H]1C[C@@H]2[C@@H](O)c1ccnc2ccc(OC)cc12 [quinidine]
- Effect on metabolism of propranolol in human microsomes (pooled human microsomes [6]): inhibited propranolol metabolism
- Effect on metabolism of propranolol in rat microsomes (pooled rat microsomes [7]): inhibit metabolism

Molecule: CN(C)C(=O)CCSC(SCCC(=O)O)c1cccc(/C=C/c2ccc3ccc(Cl)cc3n2)c1 (stereo not shown) [MK-571]
- Change of uptake of propranolol in rat hepatocytes (rat hepatocytes [5]; propranolol 10 μM, n=4): not significantly changed

Molecule: CCCCc1nc(Cl)c(CO)n1Cc1ccc(-c2ccccc2-c2nn[nH]n2)cc1 [losartan]
- BDDCS class [4]: Class 2
- Change in AUC of the cumulative metabolite (rat hepatocytes [8]): no change in metabolite formation

Molecule: CCCCc1ncc(/C=C(\Cc2cccs2)C(=O)O)n1Cc1ccc(C(=O)O)cc1 [eprosartan]
- BDDCS class [4]: Class 4

Molecule: CO[C@H]1/C=C/O[C@@]2(C)Oc3c(C)c(O)c4c(O)c(c(/C=N/N5CCN(C)CC5)c(O)c4c3C2=O)NC(=O)/C(C)=C\C=C\[C@H](C)[C@H](O)[C@@H](C)[C@@H](O)[C@@H](C)[C@H](OC(C)=O)[C@@H]1C [rifampin]
- Effect on metabolism of losartan in rat microsomes (pooled rat microsomes [2]): no change in metabolism
- Decrease of uptake of losartan in human hepatocytes compared to normal serum (human hepatocytes): 55%
- Change of uptake of eprosartan in rat hepatocytes compared to normal serum (rat hepatocytes [9]): no significant differences

From PMC3581075 (Journal of pharmaceutical sciences, 2011)
